Source: publication PMC4774972, “Activity and Predicted Nephrotoxicity of Synthetic Antibiotics Based on Polymyxin B” (Journal of Medicinal Chemistry, 2016)
Bridge positions count the residues as written; N and C are the ends. Square brackets hold non-standard residues; d marks the D form. Peptide text beside a SMILES is read from it. * marks the point of attachment. Octanoyl = CCCCCCCC(=O)*; Dab = NCC[C@H](N)C(=O)O

Legend:
[1] = test system: A. baumannii CI Ptyela 100734512:2, PmxR; conditions: MIC A. baumannii CI Ptyela 100734512:2, PmxR (µg/mL)
K. pneumoniae ATCC 13883 = conditions: MIC K. pneumoniae ATCC 13883 (µg/mL)
[2] = test system: K. pneumoniae CI 138-16357-20362, PmxR; conditions: MIC K. pneumoniae CI 138-16357-20362, PmxR (µg/mL)
[3] = test system: K. pneumoniae CI Koprana 100650661:1, PmxR; conditions: MIC K. pneumoniae CI Koprana 100650661:1, PmxR (µg/mL)
[4] = test system: P. aeruginosa FADDI-PA070, PmxR; conditions: MIC P. aeruginosa FADDI-PA070, PmxR (µg/mL)
[5] = test system: P. aeruginosa PA9704, PmxR; conditions: MIC P. aeruginosa PA9704, PmxR (µg/mL)
[6] = test system: S. aureus ATCC 25923, MSSA; conditions: MIC S. aureus ATCC 25923, MSSA (µg/mL)
HepG2 = conditions: CC50 HepG2 (µM)
[7] = test system: K. pneumoniae CI 138-16357-20362, PmxR; experiment: microbe, parasite or virus in culture; format: cell-based, Klebsiella pneumoniae; conditions: carbapenem & polymyxin resistant clinical isolate; MHB, 5 × 10^5 CFU/mL, 18 h at 37 °C
Description: (§1) Bacteria were either obtained from American Type Culture Collection (ATCC; Manassas, VA, USA) or independent academic clinical isolate collections, as listed in Table S2. Bacteria were cultured in nutrient broth (NB; Bacto Laboratories, catalog no. 234000) or Muller Hinton broth (MHB; Bacto Laboratories, catalog no. 211443) at 37 °C overnight with shaking (∼180 rpm). A sample of each culture was then diluted 50-fold in fresh MHB and incubated at 37 °C for 1.5–3 h with shaking (∼180 rpm). Compound stock solutions were prepared as 0.64 or 2.56 mg/mL in water. The compounds, at twice the final desired concentration, were serially diluted 2-fold across the wells of 96-well plates (Polystyrene, Corning, catalogue No. 3370). Mid log phase bacterial cultures (after 1.5–3 h incubation) were diluted to a final concentration of 5 × 10^5 colony forming units (CFU)/mL, and 50 μL was added to each well giving a final compound concentration range of 32 μg/mL to 0.015 μg/mL (128–0.06 μg/mL for colistin and polymyxin B against the polymyxin resistant clinical isolates). MICs were determined visually after 18 h of incubation at 37 °C, with the MIC defined as the lowest compound concentration at which no bacterial growth was visible.
(§2) Table S2. Bacterial strains used for Minimum Inhibitory Concentration (MIC) […]
(§3) Organism Strain Strain description Strain Source
(§4) Escherichia coli ATCC 25922 FDA strain Seattle 1946 ATCC
(§5) Klebsiella pneumoniae ATCC 13883 Control strain ATCC
(§6) Klebsiella pneumoniae ATCC 700603 Multi-drug resistant ATCC
(§7) Klebsiella pneumoniae BAA-2146 Metallo-beta-lactamase- ATCC
(§8) Acinetobacter baumannii ATCC 19606 Type strain ATCC
(§9) Pseudomonas aeruginosa ATCC 27853 Type strain ATCC
(§10) Pseudomonas aeruginosa FADDI-PA070 Clinical isolate, Nation and Li labs, polymyxin resistant Monash University
(§11) Clinical isolate, Wang Hengzhuang, Pseudomonas aeruginosa PA9704 polymyxin resistant University Hospital of […]
(§12) Ptyela Clinical isolate, Ilias Karaiskos and Acinetobacter baumannii Carbapenem & Helen Giamarellou
(§13) Clinical isolate, Medicine, Hygeia
(§14) Klebsiella pneumoniae Koprana Carbapenem, & General Hospital, […]
(§15) Clinical isolate, (Instituto Dante […]
(§16) polymyxin resistant Cardiologia, São […]

[8] = test system: K. pneumoniae CI Koprana 100650661:1, PmxR; experiment: microbe, parasite or virus in culture; format: cell-based, Klebsiella pneumoniae; conditions: carbapenem & polymyxin resistant clinical isolate; MHB, 5 × 10^5 CFU/mL, 18 h at 37 °C
Description: as §1, §2, §3, §4, §5, §6, §7, §8, §9, §10, §11, §12, §13, §14, §15, §16

Row | Compound | MIC [1] [µg/mL] | MIC (K. pneumoniae ATCC 13883) [µg/mL] | MIC [2] [µg/mL] | MIC [3] [µg/mL] | MIC [4] [µg/mL] | MIC [5] [µg/mL] | MIC [6] [µg/mL] | CC50 (HepG2) [µM] | MIC K. pneumoniae CI 138-16357-20362, PmxR [7] [µg/mL] | MIC K. pneumoniae CI Koprana 100650661:1, PmxR [8] [µg/mL]
1 | CCCCCCCC(=O)N[C@@H](CCN)C(=O)N[C@H](C(=O)N[C@@H](CCN)C(=O)N[C@H]1CCNC(=O)[C@H]([C@@H](C)O)NC(=O)[C@H](CCCNC(=N)N)NC(=O)[C@H](CCN)NC(=O)[C@H](CC(C)C)NC(=O)[C@@H](Cc2ccccc2)NC(=O)[C@H](CCN)NC1=O)[C@@H](C)O [Compound 21] (Octanoyl-[Dab]T[Dab][Dab][Dab][dF]L[Dab]RT; lactam 4-C) | > 32 | > 32 | > 32 | > 32 | > 32 | > 32 | > 32 | > 300 | >32 | >32
2 | CCCCCCCC(=O)N[C@@H](CCN)C(=O)N[C@H](C(=O)N[C@@H](CCN)C(=O)N[C@H]1CCNC(=O)[C@H]([C@@H](C)O)NC(=O)[C@H](CCN)NC(=O)[C@H](CCNC(=O)[C@@H](N)CCCNC(=N)N)NC(=O)[C@H](CC(C)C)NC(=O)[C@@H](Cc2ccccc2)NC(=O)[C@H](CCN)NC1=O)[C@@H](C)O [Compound 22] | > 32 |  | > 32 | > 32 | > 32 | > 32 | > 32 |  | >32 | >32
3 | CCCCCCCC(=O)N[C@@H](CCN)C(=O)N[C@H](C(=O)N[C@@H](CCN)C(=O)N[C@H]1CCNC(=O)[C@H]([C@@H](C)O)NC(=O)[C@H](CCN)NC(=O)[C@H](Cc2ccc(N)cc2)NC(=O)[C@H](CC(C)C)NC(=O)[C@@H](Cc2ccccc2)NC(=O)[C@H](CCN)NC1=O)[C@@H](C)O [Compound 25] | > 32 |  | > 32 | > 32 |  | > 32 | > 32 |  | >32 | >32
4 | CCCCCCCC(=O)N[C@@H](CCN)C(=O)N[C@H](C(=O)N[C@@H](CCN)C(=O)N[C@H]1CCNC(=O)[C@H]([C@@H](C)O)NC(=O)[C@H](CCN)NC(=O)[C@H](CCCNC(=N)N)NC(=O)[C@H](CC(C)C)NC(=O)[C@@H](Cc2ccccc2)NC(=O)[C@H](CCN)NC1=O)[C@@H](C)O [Compound 26] |  |  | > 32 | > 32 |  | > 32 | > 32 |  | >32 | >32
5 | CCCCCCCC(=O)N[C@@H](CCN)C(=O)N[C@H](C(=O)N[C@@H](CCN)C(=O)N[C@H]1CCNC(=O)[C@H]([C@@H](C)O)NC(=O)[C@H](CCN)NC(=O)[C@H](CCN)NC(=O)[C@H](CC(C)C)NC(=O)[C@@H](Cc2ccccc2)NC(=O)[C@H](CCNC(=O)[C@@H](N)CCCNC(=N)N)NC1=O)[C@@H](C)O [Compound 31] (Octanoyl-[Dab]T[Dab][Dab][Dab](Arg)[dF]L[Dab][Dab]T; lactam 4-C) | > 32 |  | > 32 | > 32 | > 32 | > 32 | > 32 | > 300 | >32 | >32
6 | CCCCCCCC(=O)N[C@@H](CCN)C(=O)N[C@H](C(=O)N[C@H](CO)C(=O)N[C@H]1CCNC(=O)[C@H]([C@@H](C)O)NC(=O)[C@H](CCN)NC(=O)[C@H](CCN)NC(=O)[C@H](CC(C)C)NC(=O)[C@@H](Cc2ccccc2)NC(=O)[C@H](CCN)NC1=O)[C@@H](C)O [Compound 37] (Octanoyl-[Dab]T[dS][Dab][Dab][dF]L[Dab][Dab]T; lactam 4-C) | > 32 |  | > 32 | > 32 | > 32 | > 32 | > 32 | > 300 | >32 | >32
